This is an account of results in patent publication US9023851B2 (Merck Patent GmbH, priority 2010, dated 2015).

Where only a bound is given, the exact number is not on record here.

Holding throughout (assay type): biochemical
Test [1] deals with T1, Syk (Homo sapiens, UniProt P43405).
T1 construct: purchased BPS Bioscience, CA, USA
The experiment in a line: Syk enzyme assay (flash plate / Caliper mobility shift). The method in brief: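 Flashplate format used 2.5 nM SYK, 400 nM biotinylated peptide and 10 µM ATP with 33P tracer, pH 7.5, 1 h at 30 °C, read by radioactivity. Caliper format ran 90 min at 25 °C in HEPES pH 7.5, reading percent peptide conversion by mobility shift. IC50s came from dose-response curves.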

In test [2] the target is T2, ZAP-70 (Homo sapiens, UniProt P43403).
T2 construct: purchased BPS Bioscience, CA, USA
T2 sequence (P43403 1-619): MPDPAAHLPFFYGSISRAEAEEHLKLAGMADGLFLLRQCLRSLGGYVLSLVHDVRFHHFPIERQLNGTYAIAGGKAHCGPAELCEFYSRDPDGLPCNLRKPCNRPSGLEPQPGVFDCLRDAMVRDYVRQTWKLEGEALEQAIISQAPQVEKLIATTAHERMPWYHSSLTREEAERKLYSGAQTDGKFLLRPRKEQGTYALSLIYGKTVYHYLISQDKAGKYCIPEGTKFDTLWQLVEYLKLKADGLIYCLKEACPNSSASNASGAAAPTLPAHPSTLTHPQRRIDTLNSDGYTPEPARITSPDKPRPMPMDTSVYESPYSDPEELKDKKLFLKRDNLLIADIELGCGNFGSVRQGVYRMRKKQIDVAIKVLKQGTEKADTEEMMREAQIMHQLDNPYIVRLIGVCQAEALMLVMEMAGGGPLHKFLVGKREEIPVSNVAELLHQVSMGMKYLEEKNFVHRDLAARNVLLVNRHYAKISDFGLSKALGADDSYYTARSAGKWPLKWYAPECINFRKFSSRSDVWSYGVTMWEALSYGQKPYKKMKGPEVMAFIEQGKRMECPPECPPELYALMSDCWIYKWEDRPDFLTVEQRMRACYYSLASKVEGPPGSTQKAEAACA
Put plainly: Zap70 enzymatic assay (Caliper LifeSciences technology). The method in brief:
(§1)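 Off-chip mobility-shift assay quantifying conversion of a fluorescent peptide substrate to phosphorylated product. Reactions in 100 mM HEPES pH 7.5, 1 mM DTT, 1 mM MgCl2, 0.015% Brij-35, 90 min at 25 C, stopped with EDTA. IC50 from sigmoidal fit of percent conversion versus inhibitor concentration.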

The target of test [3] is T3, KDR (Homo sapiens, UniProt P35968).
T3 construct: purchased BPS Bioscience, CA, USA
Put plainly: KDR enzymatic assay (Caliper LifeSciences technology). A digest of the protocol: as §1

The target of test [4] is T4, Src (Homo sapiens, UniProt P12931).
T4 construct: purchased Carna Bioscience, Kobe, Japan
The experiment in a line: cSrc enzymatic assay (Caliper LifeSciences technology). As for the experimental part:
Enzymatic Assays Using the Caliper LifeSciences Technology
The assays described here are performed on the Caliper Life Sciences LC3000 system This technology provides data on enzyme activity via measurement of the relative amounts of phosphorylated or unphosphorylated fluorescently labelled substrate peptide at the end of an enzymatic reaction. These different states of peptide are resolved by applying a potential difference across the sample. The presence of the charged phosphate group on the product (as opposed to the substrate) causes a different peptide mobility between the two peptides. This is visualized by excitation of the fluorescent label on the substrate and product peptides and represented as peaks within the analysis software.
In order to measure inhibitor activity of kinase inhibitors on this technology, a TTP Mosquito liquid handling instrument is used to place 0.25 ul of the appropriate concentration of inhibitor in 100% DMSO (for a dose response curve calculation) into each well of a 384-well plate. To this reaction components are added to a final volume of 25 ul. The table below indicates the sequences and concentrations for the assays described in this report. Standard components are 1 mM DTT (Sigma, D0632), 1 mM MgCl2 (Sigma, M1028), 100 mM HEPES pH 7.5 (Calbiochem, 391338), 0.015% Brij-35 (Sigma, B4184).
The reaction is incubated for 90 min at 25 C, and then stopped by the addition of 70 ul of Stop buffer (100 mM HEPES pH 7.5, 0.015% Brij-35, 10 mM EDTA (Sigma, E7889)).
The plate is read on a Caliper LC 3000 in an Off-Chip mobility shift assay format, on a 12-sipper chip. Unphosphorylated substrate and phosphorylated product peptide resolve as separate peaks allowing direct measurement of percentage of conversion of substrate to product. The percent conversion can be plotted against concentration of inhibitor to produce a sigmoidal dose response curve, from which an IC50 can be calculated using GeneData Condoseo or a similar product. Cellular activity assays

T3 sequence (P35968 20-1356): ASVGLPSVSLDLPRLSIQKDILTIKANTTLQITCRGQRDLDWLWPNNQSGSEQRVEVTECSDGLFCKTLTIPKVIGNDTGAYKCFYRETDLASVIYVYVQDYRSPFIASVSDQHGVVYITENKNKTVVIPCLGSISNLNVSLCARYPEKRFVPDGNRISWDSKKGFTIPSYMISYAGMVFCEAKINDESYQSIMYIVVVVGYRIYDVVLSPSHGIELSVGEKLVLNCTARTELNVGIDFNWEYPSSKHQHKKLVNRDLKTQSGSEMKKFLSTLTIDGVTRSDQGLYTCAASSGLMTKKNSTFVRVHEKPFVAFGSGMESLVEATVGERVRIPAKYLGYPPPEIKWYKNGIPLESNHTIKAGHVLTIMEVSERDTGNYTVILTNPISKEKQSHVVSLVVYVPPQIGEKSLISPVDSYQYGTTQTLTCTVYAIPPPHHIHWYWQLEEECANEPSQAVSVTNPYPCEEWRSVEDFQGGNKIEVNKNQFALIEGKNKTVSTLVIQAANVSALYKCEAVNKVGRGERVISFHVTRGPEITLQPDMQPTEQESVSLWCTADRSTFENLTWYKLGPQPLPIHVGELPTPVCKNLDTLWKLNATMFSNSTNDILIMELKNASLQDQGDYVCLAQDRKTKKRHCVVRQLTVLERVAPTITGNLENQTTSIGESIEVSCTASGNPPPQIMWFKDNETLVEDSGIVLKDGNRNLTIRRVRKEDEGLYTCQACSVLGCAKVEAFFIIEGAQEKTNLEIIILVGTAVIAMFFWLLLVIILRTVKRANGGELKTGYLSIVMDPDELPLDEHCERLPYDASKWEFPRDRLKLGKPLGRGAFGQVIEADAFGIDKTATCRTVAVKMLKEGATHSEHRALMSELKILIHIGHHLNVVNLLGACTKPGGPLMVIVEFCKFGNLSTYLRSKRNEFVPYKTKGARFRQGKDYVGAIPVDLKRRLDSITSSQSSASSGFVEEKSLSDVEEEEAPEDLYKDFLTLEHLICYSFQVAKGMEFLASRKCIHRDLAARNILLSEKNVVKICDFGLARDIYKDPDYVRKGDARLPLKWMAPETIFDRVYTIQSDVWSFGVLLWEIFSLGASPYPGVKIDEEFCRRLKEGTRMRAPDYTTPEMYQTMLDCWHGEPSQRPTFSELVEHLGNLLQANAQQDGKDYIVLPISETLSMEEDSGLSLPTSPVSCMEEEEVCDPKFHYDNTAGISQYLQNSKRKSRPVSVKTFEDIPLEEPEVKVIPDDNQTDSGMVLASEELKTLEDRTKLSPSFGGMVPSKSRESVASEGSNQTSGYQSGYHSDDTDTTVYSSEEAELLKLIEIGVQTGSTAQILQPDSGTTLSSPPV
T4 sequence (P12931 whole entry): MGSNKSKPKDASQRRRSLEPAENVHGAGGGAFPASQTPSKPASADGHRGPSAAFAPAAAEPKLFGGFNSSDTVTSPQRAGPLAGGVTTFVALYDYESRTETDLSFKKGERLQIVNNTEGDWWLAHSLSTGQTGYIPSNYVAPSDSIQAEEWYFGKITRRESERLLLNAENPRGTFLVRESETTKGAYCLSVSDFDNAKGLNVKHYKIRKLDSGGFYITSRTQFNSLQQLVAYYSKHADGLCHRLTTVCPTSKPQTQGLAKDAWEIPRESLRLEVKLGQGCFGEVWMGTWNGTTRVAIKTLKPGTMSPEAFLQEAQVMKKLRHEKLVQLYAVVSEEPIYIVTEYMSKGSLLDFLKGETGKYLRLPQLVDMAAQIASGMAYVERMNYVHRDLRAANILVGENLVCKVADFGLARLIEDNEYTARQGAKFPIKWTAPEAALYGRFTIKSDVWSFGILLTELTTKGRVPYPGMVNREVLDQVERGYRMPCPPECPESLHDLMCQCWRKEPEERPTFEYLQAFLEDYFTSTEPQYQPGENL

For `FC(F)(F)c1cccc(Nc2nc3c(NCCCN4CCOCC4)nccn3n2)c1` [Example C42, N^8-(3-Morpholin-4-yl-propyl)-N^2-(3-trifluoromethyl-phenyl)-[1,2,4]triazolo[1,5-a]pyrazine-2,8-diamine], the IC50 in test [1] is 3 to 50 µM; in test [2], 0.3 to 3 µM; in test [3], 3 to 50 µM; in test [4], 3 to 50 µM.

In the case of `COc1cc(Nc2nc3c(-c4ccc(C(C)(C)C#N)cc4)nccn3n2)cc(OC)c1` [Example C256, 2-{4-[2-(3,5-Dimethoxy-phenylamino)-[1,2,4]triazolo[1,5-a]pyrazin-8-yl]-phenyl}-2-methyl-propionitrile], the IC50 is under 0.3 µM in test [1], 3 to 50 µM in test [2], 0.3 to 3 µM in test [3] and 0.3 to 3 µM in test [4].

Regarding `Cc1cccc(Nc2nc3c(NCCCN4CCN(C)CC4)nccn3n2)c1` [Example C48, N^8-[3-(4-Methyl-piperazin-1-yl)-propyl]-N^2-m-tolyl-[1,2,4]triazolo[1,5-a]pyrazine-2,8-diamine], the IC50 in test [1] lay in the range of 3 to 50 µM; in test [2] it was 0.3 to 3 µM; in test [3] it was 3 to 50 µM; in test [4] it was 3 to 50 µM.

Take `COc1cc(Nc2nc3c(-c4cn[nH]c4)nccn3n2)cc(OC)c1` [Example C301, (3,5-Dimethoxy-phenyl)-[8-(1H-pyrazol-4-yl)-[1,2,4]triazolo[1,5-a]pyrazin-2-yl]-amine]: the IC50 was under 0.3 µM in test [1], 3 to 50 µM in test [2], 0.3 to 3 µM in test [3] and 0.3 to 3 µM in test [4].

Regarding `Cc1cccc(Nc2nc3c(-c4ccc(N5CCOCC5)cc4)nccn3n2)c1` [Example C13, [8-(4-Morpholin-4-yl-phenyl)-[1,2,4]triazolo[1,5-a]pyrazin-2-yl]-m-tolyl-amine], the IC50 in test [1] lay within 0.3 to 3 µM; in test [2], 3 to 50 µM; in test [3] it was 0.3 to 3 µM; in test [4], 3 to 50 µM.

On to `COc1cc(Nc2nc3c(-c4cccc5[nH]ncc45)nccn3n2)cc(OC)c1` [Example C303, (3,5-Dimethoxy-phenyl)-[8-(1H-indazol-4-yl)-[1,2,4]triazolo[1,5-a]pyrazin-2-yl]-amine], for which the IC50 in test [1] was under 0.3 µM; in test [2], under 0.3 µM; in test [3], 0.3 to 3 µM; in test [4], under 0.3 µM.

On to `Cn1ncc2cc(-c3nccn4nc(Nc5ccc(N6CCOCC6)cc5)nc34)ccc21` [Example D2, [8-(1-Methyl-1H-indazol-5-yl)-[1,2,4]triazolo[1,5-a]pyrazin-2-yl]-(4-morpholin-4-yl-phenyl)-amine], for which the IC50 was under 0.3 µM in test [1], 3 to 50 µM in test [2], under 0.3 µM in test [3] and 0.3 to 3 µM in test [4].

For `COc1cc(Nc2nc3c(-c4cnn(C)c4)nccn3n2)cc(OC)c1` [Example C300, (3,5-Dimethoxy-phenyl)-[8-(1-methyl-1H-pyrazol-4-yl)-[1,2,4]triazolo[1,5-a]pyrazin-2-yl]-amine], the IC50 in test [1] is under 0.3 µM; in test [2], 3 to 50 µM; in test [3] it was 0.3 to 3 µM; in test [4], 0.3 to 3 µM.

In the case of `Cc1cc(C)cc(Nc2nc3c(NCCCN4CCN(C)CC4)nccn3n2)c1` [Example C36, N^2-(3,5-Dimethyl-phenyl)-N^8-[3-(4-methyl-piperazin-1-yl)-propyl]-[1,2,4]triazolo[1,5-a]pyrazine-2,8-diamine], the 50% inhibitory concentration (IC50) in test [1], in test [2], in test [3] and in test [4] was 3 to 50 µM in each case.

Turning to `COc1cc(Nc2nc3c(N4CCCC4c4ccccn4)nccn3n2)cc(OC)c1` (stereo not drawn) [Example D21, (3,5-Dimethoxy-phenyl)-[8-(2-pyridin-2-yl-pyrrolidin-1-yl)-[1,2,4]triazolo[1,5-a]pyrazin-2-yl]-amine], the IC50 fell in the range of 0.3 to 3 µM in test [1], 3 to 50 µM in test [2], 3 to 50 µM in test [3] and 3 to 50 µM in test [4].

Take `Oc1cccc(-c2nccn3nc(Nc4ccc(N5CCOCC5)cc4)nc23)c1` [Example C269, 3-[2-(4-Morpholin-4-yl-phenylamino)-[1,2,4]triazolo[1,5-a]pyrazin-8-yl]-phenol]: the IC50 in test [1] was under 0.3 µM; in test [2], 0.3 to 3 µM; in test [3], under 0.3 µM; in test [4], 0.3 to 3 µM.

In the case of `COc1cc(Nc2nc3c(-c4ccc5cccnc5c4)nccn3n2)cc(OC)c1` [Example C264, (3,5-Dimethoxy-phenyl)-(8-quinolin-7-yl-[1,2,4]triazolo[1,5-a]pyrazin-2-yl)-amine], the IC50 in test [1] is under 0.3 µM; in test [2], 3 to 50 µM; in test [4], 0.3 to 3 µM.

Take `COCC(O)Cn1cc(-c2nccn3nc(Nc4ccc(N5CCOCC5)cc4)nc23)cn1` (stereo not drawn) [Example D6, 1-Methoxy-3-{4-[2-(4-morpholin-4-yl-phenylamino)-[1,2,4]triazolo[1,5-a]pyrazin-8-yl]-pyrazol-1-yl}-propan-2-ol]: the 50% inhibitory concentration (IC50) in test [1] is 0.3 to 3 µM; in test [2] it was 3 to 50 µM; in test [3], 0.3 to 3 µM; in test [4] it was 0.3 to 3 µM.

For `COCCCNc1nccn2nc(Nc3cccc(C)c3)nc12` [Example C32, N^8-(3-Methoxy-propyl)-N^2-m-tolyl-[1,2,4]triazolo[1,5-a]pyrazine-2,8-diamine], the IC50 in test [1], in test [2], in test [3] and in test [4] was 3 to 50 µM each time.

Regarding `Cc1cc(C)cc(Nc2nc3c(NCCCN(C)C)nccn3n2)c1` [Example C35, N^8-(3-Dimethylamino-propyl)-N^2-(3,5-dimethyl-phenyl)-[1,2,4]triazolo[1,5-a]pyrazine-2,8-diamine], the IC50 in test [1], in test [2], in test [3] and in test [4] was 3 to 50 µM throughout.

As for `CN(C)c1ccc(-c2nccn3nc(Nc4ccc(N5CCOCC5)cc4)nc23)cn1` [Example D3, [8-(6-Dimethylamino-pyridin-3-yl)-[1,2,4]triazolo[1,5-a]pyrazin-2-yl]-(4-morpholin-4-yl-phenyl)-amine], the IC50 in test [1] is under 0.3 µM; in test [2], 3 to 50 µM; in test [3], under 0.3 µM; in test [4], 0.3 to 3 µM.

Turning to `Cn1ccnc1Sc1ccc(Nc2nc3c(-c4ccccc4)nccn3n2)cc1Cl` [Example C23, [3-Chloro-4-(1-methyl-1H-imidazol-2-ylsulfanyl)-phenyl]-(8-phenyl-[1,2,4]triazolo[1,5-a]pyrazin-2-yl)-amine], the concentration for half-maximal inhibition (IC50) lay within 0.3 to 3 µM in test [1], 3 to 50 µM in test [2], 0.3 to 3 µM in test [3] and 3 to 50 µM in test [4].

As for `Cc1cc(C)cc(Nc2nc3c(NCCN)nccn3n2)c1` [Example C34, N^8-(2-Amino-ethyl)-N^2-(3,5-dimethyl-phenyl)-[1,2,4]triazolo[1,5-a]pyrazine-2,8-diamine], the IC50 in test [1], in test [2], in test [3] and in test [4] was 3 to 50 µM in each case.

Turning to `Cc1cccc(Nc2nc3c(NCCCN4CCOCC4)nccn3n2)c1` [Example C47, N^8-(3-Morpholin-4-yl-propyl)-N^2-m-tolyl-[1,2,4]triazolo[1,5-a]pyrazine-2,8-diamine], the IC50 in test [1], in test [2], in test [3] and in test [4] was 3 to 50 µM throughout.
